Data as given in the supplement of paper PMC9244889.
± gives the standard deviation of the averaged measurements.

Key:
Vero E6 [1] = experiment: cytotoxicity relative to untreated cell control; higher = more toxic; conditions: 72 h, assay detail: uninfected
Method: (§1)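 Vero E6 C1008 cells (2e4 cells/well) were treated with a 3-fold dilution series of each drug (monotherapy), with or without live SARS-CoV-2 (propagated original strain, 100 TCID50). After 72 h at 37 °C, viability was read with Viral ToxGlo (ATP luminescence). %Inhibition of virus-induced CPE and %Cytotoxicity (uninfected) were normalised to cell and virus controls. Triplicates. The paper excluded %Inhibition points with >25% cytotoxicity from its curve fits.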

Vero E6 [2] = experiment: inhibition of SARS-CoV-2-induced cytopathic effect relative to cell and virus controls; higher = more antiviral protection; conditions: 72 h, virus: SARS-CoV-2 propagated original strain, 100 TCID50, assay detail: infected
Method: as §1

O=c1nc(NO)ccn1[C@@H]1O[C@H](CO)[C@@H](O)[C@H]1O [EIDD-1931]
Conditions | cytotoxicity, Vero E6 [1] [%] | inhibition of SARS-CoV-2-induced cytopathic effect, Vero E6 [2] [%]
56.45 pM | -9.83 ± 7.4 | -1.26 ± 1.9
0.000169351 µM | -16.6 ± 5.9 | 0.00675 ± 3
0.000508053 µM | -20 ± 1.8 | 0.0533 ± 0.39
0.00152416 µM | -19.1 ± 1.4 | 0.601 ± 1.1
0.00457247 µM | -16.2 ± 4 | -0.506 ± 1.3
0.0137174 µM | -14.9 ± 3.3 | -0.261 ± 0.77
0.0411523 µM | -10.5 ± 15 | -0.787 ± 1.6
0.123457 µM | -12.1 ± 5.8 | 3.32 ± 2.9
0.37037 µM | -7.1 ± 3.5 | 13.2 ± 0.86
1.11111 µM | -15.6 ± 2.5 | 57.5 ± 4.3
3.33333 µM | 7.25 ± 3.6 | 78.3 ± 1.5
10 µM | 25.9 ± 2.2 | 70.6 ± 1.6

CC(C)c1nc(CN(C)C(=O)N[C@H](C(=O)N[C@@H](Cc2ccccc2)C[C@H](O)[C@H](Cc2ccccc2)NC(=O)OCc2cncs2)C(C)C)cs1 [ritonavir]
Conditions | cytotoxicity, Vero E6 [1] [%] | inhibition of SARS-CoV-2-induced cytopathic effect, Vero E6 [2] [%]
0.00112901 µM | -15.2 ± 3.3 | 2.5 ± 0.64
0.00338702 µM | -13.3 ± 7.5 | 3.51 ± 1.5
0.0101611 µM | -27.3 ± 7.8 | 1.73 ± 1
0.0304832 µM | -22.5 ± 5.2 | 0.79 ± 0.69
0.0914495 µM | -33.3 ± 7.1 | 2.39 ± 0.89
0.274348 µM | -28.6 ± 2.6 | 0.802 ± 1.1
0.823045 µM | -22 ± 5.3 | 1.81 ± 1.6
2.46914 µM | -21.4 ± 2.2 | 1.96 ± 0.96
7.40741 µM | -27.3 ± 11 | 2.22 ± 0.63
22.2222 µM | -38.7 ± 3.8 | 7.59 ± 2.9
66.6667 µM | 8.14 ± 47 | 2.75 ± 1.2
200 µM | 69.7 ± 22 | -2.18 ± 7.1

CCC[C@H](NC(=O)[C@@H]1[C@H]2CCC[C@H]2CN1C(=O)[C@@H](NC(=O)[C@@H](NC(=O)c1cnccn1)C1CCCCC1)C(C)(C)C)C(=O)C(=O)NC1CC1 [telaprevir]
Conditions | cytotoxicity, Vero E6 [1] [%] | inhibition of SARS-CoV-2-induced cytopathic effect, Vero E6 [2] [%]
0.000564503 µM | 0.259 ± 1.2 | 0.117 ± 1.5
0.00169351 µM | -0.00145 ± 0.65 | 1.28 ± 0.57
0.00508053 µM | -4.54 ± 0.81 | -0.629 ± 1.3
0.0152416 µM | -3.42 ± 5.8 | -0.222 ± 1.2
0.0457247 µM | -3.36 ± 3 | 0.129 ± 1.5
0.137174 µM | -8.35 ± 1.5 | -0.93 ± 0.51
0.411523 µM | -3.53 ± 0.71 | -0.643 ± 0.94
1.23457 µM | -4.1 ± 2.4 | 1.01 ± 2
3.7037 µM | -6.16 ± 4 | 0.773 ± 1.4
11.1111 µM | -1.51 ± 1.7 | 0.394 ± 1.7
33.3333 µM | 17.2 ± 0.76 | -2.07 ± 0.9
100 µM | 80.5 ± 10 | 17.4 ± 5.8

CCS(=O)(=O)N1CC(CC#N)(n2cc(-c3ncnc4[nH]ccc34)cn2)C1 [baricitinib]
Conditions | cytotoxicity, Vero E6 [1] [%] | inhibition of SARS-CoV-2-induced cytopathic effect, Vero E6 [2] [%]
56.45 pM | -23.8 ± 2.7 | 0.443 ± 1.1
0.000169351 µM | -24.9 ± 6.2 | -0.597 ± 0.76
0.000508053 µM | -20.2 ± 4.5 | 1.73 ± 0.91
0.00152416 µM | -17.5 ± 3.1 | 0.473 ± 0.57
0.00457247 µM | -20.6 ± 5.6 | 0.0832 ± 0.89
0.0137174 µM | -15.3 ± 5.8 | -0.169 ± 1.2
0.0411523 µM | -17.8 ± 3.3 | -0.529 ± 0.88
0.123457 µM | -13.4 ± 2.3 | -0.177 ± 1.5
0.37037 µM | -9.61 ± 0.59 | 0.117 ± 0.97
1.11111 µM | -14 ± 4.5 | -1.55 ± 1.5
3.33333 µM | -9.73 ± 1.8 | -2.06 ± 0.42
10 µM | -10.3 ± 3.5 | -1.06 ± 0.97

O=c1c2ccccc2[se]n1-c1ccccc1 [ebselen]
Conditions | cytotoxicity, Vero E6 [1] [%] | inhibition of SARS-CoV-2-induced cytopathic effect, Vero E6 [2] [%]
56.45 pM | -9.38 ± 4.1 | 0.954 ± 0.61
0.000169351 µM | -15.3 ± 3.5 | -0.438 ± 1.1
0.000508053 µM | -9.41 ± 1.5 | -0.0732 ± 1.1
0.00152416 µM | -4.85 ± 2.3 | -0.949 ± 0.44
0.00457247 µM | -3.63 ± 6 | -0.344 ± 1.1
0.0137174 µM | -5.61 ± 6.4 | -0.6 ± 1.6
0.0411523 µM | -10.3 ± 0.24 | -1.57 ± 0.16
0.123457 µM | -6.66 ± 3.9 | 0.817 ± 0.74
0.37037 µM | -2.52 ± 2.6 | 0.828 ± 2.2
1.11111 µM | -1.45 ± 4.3 | 1.82 ± 1.7
3.33333 µM | 2.92 ± 2.2 | 6.69 ± 0.55
10 µM | 17.6 ± 1.9 | 71.3 ± 17

O=C(/C=C\n1cnc(-c2cc(C(F)(F)F)cc(C(F)(F)F)c2)n1)NNc1cnccn1 [selinexor]
Conditions | cytotoxicity, Vero E6 [1] [%] | inhibition of SARS-CoV-2-induced cytopathic effect, Vero E6 [2] [%]
0.000564503 µM | 14.6 ± 0.87 | 1.79 ± 1.5
0.00169351 µM | 14.9 ± 1.5 | 0.365 ± 1.9
0.00508053 µM | 7.61 ± 4.3 | -1.85 ± 0.84
0.0152416 µM | 7.88 ± 6.2 | -2.96 ± 0.59
0.0457247 µM | 29.1 ± 9.4 | -4.3 ± 0.17
0.137174 µM | 23.4 ± 5.1 | -3.81 ± 0.77
0.411523 µM | 35.6 ± 7.9 | -3.25 ± 0.52
1.23457 µM | 47.2 ± 4.6 | -2.87 ± 0.28
3.7037 µM | 48.93 ± 0.45 | -1.23 ± 0.55
11.1111 µM | 44.1 ± 5.4 | 8.51 ± 1
33.3333 µM | 89.1 ± 5.9 | -1.32 ± 1.1
100 µM | 99.74 ± 0.26 | -15.08 ± 0.053
